Results on 13 molecules are retold here after patent US4212881A, “Streptovaricin C derivatives” (priority 1978, dated 1980).

The target in the first data set is reverse-transcriptase of mouse Sarcoma virus (Moloney murine leukemia virus, UniProt P03355). The data set can be described thus: Effect for inhibiting reverse-transcriptase of mouse Sarcoma virus. The following applies: 300 μg/ml; virus protein (MLV-moloney), 37° C. 60 minutes. In kind it is biochemical. Here is the method:
Effect for inhibiting reverse-transcriptase of mouse Sarcoma virus.
The effect for inhibition was determined as follows:
Methanol solution containing each active ingredient at a concentration of 6 mg/ml.
Solution containing 240 μg of virus protein (MLV-moloney) in 1 ml of a buffer solution of 20 mM-tris-hydrochloric acid (pH 7.8), 0.1 M-sodium chloride and 1 mM of dithiotersitol (DTT).
Reaction medium containing 46 mM tris-hydrochloric acid (pH 8.1) 92 mM potassium chloride, 15.4 mM manganese chloride, 0.77 mM-dATP, 0.77 mM-dCTP, 0.77 mM-dGTP, 0.23 μM-3H-TTP (50 ci/mM), 7.7 mM-DTT and 0.038% NP-40.
The reaction mixture was prepared by sequentially admixing (a) 5 μl, with (b) 30 μl and (c) 65 μl and the mixture was thoroughly mixed and kept at 0° C. for 5 minutes. Then, the reaction mixture was kept at 37° C. for 60 minutes and 1 ml of cold 10% trichloroacetic acid solution was added to the reaction mixture to stop the reaction. The mixture was kept at 0° C. for 20 minutes and an insoluble components were collected on each Whatman's paper GF/c (diameter of 2.5 cm) and washed with 5 ml of cold 5% trichloroacetic acid. The residue was dried in an oven at 80° C. and charged in a viral bottle containing 10 ml of toluene solution containing scintillator PPO-POPOP, and radioactivity was measured by a scintillation spectrometer.
Turning to “19-O-methyl-atropisodamavaricin Fc (containing 19-O-methyl damavaricin Fc) [Example 1]”, the “Percent inhibition (%)” value turned out to be 41%.

Regarding “19-O-benzyl atropisodamavaricin Fc (containing 19-O-benzyl damavaricin Fc) [Example 2]”, the “Percent inhibition (%)” value is 67%.

Still in this data set, the particulars now being: read-out: Percent inhibition (%).
`CCCCOc1c(C)c(O)c2c3c1C(=O)C(C)=CC(C)(O)C(O)C(C)C(O)C1C(=O)OC(C(C)C=CC=C(C)C(=O)NC(=C(C)C3=O)C2=O)C(C)C1O` (stereo not drawn) [Example 6]: the inhibition at 300 µg/mL stood at 78%. Same read-out and setting: the result for `CC1=CC=CC(C)C2OC(=O)C(C(O)C2C)C(O)C(C)C(O)C(C)(O)C=C(C)C(=O)c2c(OC3CCCCC3)c(C)c(O)c3c2C(=O)C(C)=C(NC1=O)C3=O` (stereo not drawn) [Example 22] reads 45%; that for `CCCCCCOc1c(C)c(O)c2c3c1C(=O)C(C)=CC(C)(O)C(O)C(C)C(O)C1C(=O)OC(C(C)C=CC=C(C)C(=O)NC(=C(C)C3=O)C2=O)C(C)C1O` (stereo not drawn) [Example 8], 60%; that for `CC(=O)COc1c(C)c(O)c2c3c1C(=O)C(C)=CC(C)(O)C(O)C(C)C(O)C1C(=O)OC(C(C)C=CC=C(C)C(=O)NC(=C(C)C3=O)C2=O)C(C)C1O` (stereo not drawn) [Example 24], 58%. Same read-out and setting: the result for `CCCCCOc1c(C)c(O)c2c3c1C(=O)C(C)=CC(C)(O)C(O)C(C)C(O)C1C(=O)OC(C(C)C=CC=C(C)C(=O)NC(=C(C)C3=O)C2=O)C(C)C1O` (stereo not drawn) [Example 7] reads 52%.

With `CCCCCCCCCCCOc1c(C)c(O)c2c3c1C(=O)C(C)=CC(C)(O)C(O)C(C)C(O)C1C(=O)OC(C(C)C=CC=C(C)C(=O)NC(=C(C)C3=O)C2=O)C(C)C1O` (stereo not drawn) [Example 13], the inhibition at 300 µg/mL is 78%.

On to `C=CCOc1c(C)c(O)c2c3c1C(=O)C(C)=CC(C)(O)C(O)C(C)C(O)C1C(=O)OC(C(C)C=CC=C(C)C(=O)NC(=C(C)C3=O)C2=O)C(C)C1O` (stereo not drawn) [Example 20], for which the inhibition at 300 µg/mL is 65%. Regarding `CC1=CC=CC(C)C2OC(=O)C(C(O)C2C)C(O)C(C)C(O)C(C)(O)C=C(C)C(=O)c2c(OCC(=O)c3ccccc3)c(C)c(O)c3c2C(=O)C(C)=C(NC1=O)C3=O` (stereo not drawn) [Example 30], the inhibition at 300 µg/mL stood at 50%. Same read-out and setting: with `CCOc1c(C)c(O)c2c3c1C(=O)C(C)=CC(C)(O)C(O)C(C)C(O)C1C(=O)OC(C(C)C=CC=C(C)C(=O)NC(=C(C)C3=O)C2=O)C(C)C1O` (stereo not drawn) [Example 4] the figure was 60%; with `CCCCCCCCOc1c(C)c(O)c2c3c1C(=O)C(C)=CC(C)(O)C(O)C(C)C(O)C1C(=O)OC(C(C)C=CC=C(C)C(=O)NC(=C(C)C3=O)C2=O)C(C)C1O` (stereo not drawn) [Example 10], 41%. Still for that read-out and setting: the result for `CCCOc1c(C)c(O)c2c3c1C(=O)C(C)=CC(C)(O)C(O)C(C)C(O)C1C(=O)OC(C(C)C=CC=C(C)C(=O)NC(=C(C)C3=O)C2=O)C(C)C1O` (stereo not drawn) [Example 5] reads 52%.

In a further data set the test system is mouse. The data set can be described thus: Acute toxicity (LD50) in mouse. In kind it is in vivo. The following applies: intramuscular injection. Here is the method: Acute toxicity of the novel streptovaricin C derivatives (I) are remarkably low level. For example, 19-O-methyl compound (I) has LD50 to mouse of more than 1000 mg/kg in intramuscular injection and more than 3000 mg/kg in oral dose.
On to “19-O-methyl-atropisodamavaricin Fc (containing 19-O-methyl damavaricin Fc) [Example 1]”, for which the LD50 entry was “more than 1000 mg/kg”.

Still in this data set, the particulars now being: oral dose.
“19-O-methyl-atropisodamavaricin Fc (containing 19-O-methyl damavaricin Fc) [Example 1]”: the LD50 entry is given as “more than 3000 mg/kg”.

By inhibition is commonly meant the change of the read-out against control, counted positive when it falls.
